According to US20240207292A1, “BORONIC ACID COMPOUNDS, COMPOSITIONS AND METHODS” (Trustees of Tufts College, priority 2021, published 2024):

Legend:
[1] = biological target: recombinant human fibroblast activation protein (FAP) (Homo sapiens (Human), UniProt Q12884); test: In vitro assay fibroblast activation protein IC50 (Example 21); type: biochemical
[2] = Effect of N-acetyl methionine (NAM) on stability of 6522/6555 with 50 mM AAPH at 80° C. for 30 mins; type: physicochemical; conditions: pH 5.0, 2 mg/mL
Protocol: Effect of N-acetyl methionine (NAM) on the stability of the compound 6522 (6522 compound structure immediately below) 80° C. in the presence of AAPH 2,2′-azobis-(2-amidopropane)hydrochloride, a free radical generator.
• Concentration:2 mg/mL • Reaction condition: add 50 mM AAPH, at 80° C. for 30 mins

[3] = Stability of 6555 with sulfur-containing and other stabilizers, 50 mM AAPH at 80° C. for 30 mins (Tables 7-9); type: physicochemical; conditions: 50 mM AAPH, 80° C., 0.5 hr, (+) mode
Text: The effect of specified sulfur-containing compounds and other stabilizer compounds (including non-sulfur-containing stabilizer compounds) and mixtures of sulfur-containing compounds and non-sulfur-containing stabilizer compounds with the boronic acid compound 6555 (structure shown above) at various pH values.

Chain of recombinant human fibroblast activation protein (FAP) (Q12884 whole entry): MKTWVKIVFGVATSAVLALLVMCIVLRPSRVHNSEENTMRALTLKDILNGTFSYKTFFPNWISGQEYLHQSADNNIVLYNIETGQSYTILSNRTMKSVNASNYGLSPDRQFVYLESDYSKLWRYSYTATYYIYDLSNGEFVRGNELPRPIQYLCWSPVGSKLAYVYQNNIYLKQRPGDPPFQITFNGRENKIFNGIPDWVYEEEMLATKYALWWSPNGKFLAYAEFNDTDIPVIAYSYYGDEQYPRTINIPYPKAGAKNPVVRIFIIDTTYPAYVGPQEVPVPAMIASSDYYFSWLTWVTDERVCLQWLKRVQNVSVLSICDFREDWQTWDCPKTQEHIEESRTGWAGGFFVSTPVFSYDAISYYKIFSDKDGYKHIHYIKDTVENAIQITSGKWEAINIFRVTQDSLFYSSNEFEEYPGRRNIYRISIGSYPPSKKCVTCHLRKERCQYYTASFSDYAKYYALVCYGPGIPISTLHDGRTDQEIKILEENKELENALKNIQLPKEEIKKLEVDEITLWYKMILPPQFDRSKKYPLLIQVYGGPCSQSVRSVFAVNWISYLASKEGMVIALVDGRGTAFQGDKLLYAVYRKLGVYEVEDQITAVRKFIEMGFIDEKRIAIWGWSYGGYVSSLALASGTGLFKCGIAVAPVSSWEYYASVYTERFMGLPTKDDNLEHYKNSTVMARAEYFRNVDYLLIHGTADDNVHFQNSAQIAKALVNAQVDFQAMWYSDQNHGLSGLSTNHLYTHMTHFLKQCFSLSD

IC50 [1]: 3.8 nM
6555 Remain (%) ([2]; NAM 0 mM): 64.5%
6555 Remain (%) ([2]; NAM 10 mM): 81.7%
6555 Remain (%) ([2]; NAM 40 mM): 82.9%
6555 Remain (%) ([2]; NAM 80 mM): 85.0%
6555 Remain (%) ([2]; NAM 100 mM): 85.6%
6555 Remain (%) ([2]; NAM 200 mM): 87.3%
6555 Remain (%) ([2]; NAM 400 mM): 90.2%
6555 Remaining (%) ([3]; NAM 5 mM, sodium metabisulfite 5 mM, pH 4.3): 88.8%
6555 Remaining (%) ([3]; NAM 25 mM, pH 4.0): 85.9%
6555 Remaining (%) ([3]; no stabilizer, pH 4.6): 55.8%
6555 Remaining (%) ([3]; sodium ascorbate 2.5 mM, sodium gentisate 1 mM, Acetone sodium bisulfite (2.5 mM), pH 4.6): 73.1%
6555 Remaining (%) ([3]; sodium ascorbate 2.5 mM, sodium gentisate 1 mM, Acetone sodium bisulfite (25 mM), pH 4.6): 94.0%
6555 Remaining (%) ([3]; sodium ascorbate 2.5 mM, sodium gentisate 1 mM, D-mannitol (25 mM), pH 4.5): 15.5%
6555 Remaining (%) ([3]; sodium ascorbate 2.5 mM, sodium gentisate 1 mM, Disodium hydrosulfite (25 mM), pH 4.3): 94.1%
6555 Remaining (%) ([3]; sodium ascorbate 2.5 mM, sodium gentisate 1 mM, MSM(dimethyl sulfone) (25 mM), pH 4.5): 8.2%
6555 Remaining (%) ([3]; sodium ascorbate 2.5 mM, sodium gentisate 1 mM, N-Acetyl-L-phenylalanine (25 mM), pH 4.0): 20.1%
6555 Remaining (%) ([3]; sodium ascorbate 2.5 mM, sodium gentisate 1 mM, N-Acetyl-L-tyrosine (25 mM), pH 4.0): 13.6%
6555 Remaining (%) ([3]; sodium ascorbate 2.5 mM, sodium gentisate 1 mM, NAC (25 mM), pH 4.1): 31.4%
6555 Remaining (%) ([3]; sodium ascorbate 2.5 mM, sodium gentisate 1 mM, NAM 2.5 mM, sodium metabisulfite 2.5 mM, pH 4.5): 94.8%
6555 Remaining (%) ([3]; sodium ascorbate 2.5 mM, sodium gentisate 1 mM, NAM 2.5 mM, pH 4.5): 53.3%
6555 Remaining (%) ([3]; sodium ascorbate 2.5 mM, sodium gentisate 1 mM, NAM 10 mM, sodium metabisulfite 2.5 mM, pH 4.0): 93.2%
6555 Remaining (%) ([3]; sodium ascorbate 2.5 mM, sodium gentisate 1 mM, NAM 25 mM, sodium metabisulfite 2.5 mM, pH 4.0): 92.2%
6555 Remaining (%) ([3]; sodium ascorbate 2.5 mM, sodium gentisate 1 mM, NAM 25 mM, pH 4.0): 90.8%
6555 Remaining (%) ([3]; sodium ascorbate 2.5 mM, sodium gentisate 1 mM, Potassium metabisulfite (2.5 mM), pH 4.4): 93.7%
6555 Remaining (%) ([3]; sodium ascorbate 2.5 mM, sodium gentisate 1 mM, Potassium metabisulfite (25 mM), pH 4.5): 94.1%
6555 Remaining (%) ([3]; sodium ascorbate 2.5 mM, sodium gentisate 1 mM, Sodium L-Glutamate monohydrate (concentration cut off), pH 4.7): 8.2%
6555 Remaining (%) ([3]; sodium ascorbate 2.5 mM, sodium gentisate 1 mM, Sodium formaldehydesulfoxylate di (concentration cut off), pH 4.4): 91.7%
6555 Remaining (%) ([3]; sodium ascorbate 2.5 mM, sodium gentisate 1 mM, Sodium formaldehydesulfoxylate di (concentration cut off, second entry), pH 4.5): 58.0%
6555 Remaining (%) ([3]; sodium ascorbate 2.5 mM, sodium gentisate 1 mM, Sodium sulfite (2.5 mM), pH 4.5): 67.9%
6555 Remaining (%) ([3]; sodium ascorbate 2.5 mM, sodium gentisate 1 mM, Sodium sulfite (5 mM), pH 4.6): 90.3%
6555 Remaining (%) ([3]; sodium ascorbate 2.5 mM, sodium gentisate 1 mM, Sodium sulfite (10 mM), pH 4.8): 93.8%
6555 Remaining (%) ([3]; sodium ascorbate 2.5 mM, sodium gentisate 1 mM, Sodium sulfite (25 mM), pH 5.1): 94.1%
6555 Remaining (%) ([3]; sodium ascorbate 2.5 mM, sodium gentisate 1 mM, Thiourea (25 mM), pH 4.5): 84.1%
6555 Remaining (%) ([3]; sodium ascorbate 2.5 mM, sodium gentisate 1 mM, disodium hydrosulfite 1 mM, pH 4.5): 47.4%
6555 Remaining (%) ([3]; sodium ascorbate 2.5 mM, sodium gentisate 1 mM, disodium hydrosulfite 2.5 mM, pH 4.4): 91.7%
6555 Remaining (%) ([3]; sodium ascorbate 2.5 mM, sodium gentisate 1 mM, disodium hydrosulfite 5.0 mM, pH 4.5): 94.3%
6555 Remaining (%) ([3]; sodium ascorbate 2.5 mM, sodium gentisate 1 mM, disodium hydrosulfite 10.0 mM, pH 4.5): 94.1%
6555 Remaining (%) ([3]; sodium ascorbate 2.5 mM, sodium gentisate 1 mM, disodium hydrosulfite 40.0 mM, pH 4.0): 94.6%
6555 Remaining (%) ([3]; sodium ascorbate 2.5 mM, sodium gentisate 1 mM, sodium metabisulfite 1 mM, pH 4.5): 71.1%
6555 Remaining (%) ([3]; sodium ascorbate 2.5 mM, sodium gentisate 1 mM, sodium metabisulfite 2.5 mM, pH 4.5): 93.4%
6555 Remaining (%) ([3]; sodium ascorbate 2.5 mM, sodium gentisate 1 mM, sodium metabisulfite 25 mM, pH 4.4): 93.8%
6555 Remaining (%) ([3]; sodium ascorbate 2.5 mM, sodium gentisate 1 mM, pH 4.6): 30.8%
6555 Remaining (%) ([3]; sodium ascorbate 2.5 mM, sodium gentisate 1 mM, pH 5.1): 16.7%
6555 Remaining (%) ([3]; sodium ascorbate 5 mM, sodium gentisate 2 mM, NAM 5 mM, disodium hydrosulfite 5 mM, pH 4.5): 95.7%
6555 Remaining (%) ([3]; sodium ascorbate 5 mM, sodium gentisate 2 mM, NAM 5 mM, sodium metabisulfite 5 mM, pH 4.5): 95.8%
6555 Remaining (%) ([3]; sodium ascorbate 5 mM, sodium gentisate 2 mM, NAM 5 mM, pH 4.5): 66.5%
SMILES: C[C@@H](NC(=O)c1ccc(CNC(=O)CN2CCN(CC(=O)O)CCN(CC(=O)O)CCN(CC(=O)O)CC2)cc1)C(=O)N1CCC[C@H]1B(O)O [compound 6555, DOTA-aminomethyl-Bz-D-Ala-boroPro]
